# Assay results as given in ChEMBL document CHEMBL4359862, “Cinnamamide: An insight into the pharmacological advances and structure-activity relationships” (Eur J Med Chem, 2019).
# Key:
# Escherichia coli [1] = experiment: Antibacterial activity against Escherichia coli assessed as reduction in bacterial cell viability incubated for 24 hrs by serial dilution assay; assay type: functional
# Candida albicans = experiment: Antifungal activity against Candida albicans assessed as reduction in fungal cell growth incubated for 48 hrs by serial dilution assay; assay type: functional
# MGC-803 = experiment: Antiproliferative activity against human MGC803 cells; assay type: functional, cell-based
# [2] = Inhibition of recombinant LFA1/ICAM1 (unknown origin) interaction in JY-8 cells expressing LFA1 incubated for 45 mins by fluorescence based assay; assay type: cell-based, Homo sapiens
# Escherichia coli [3] = experiment: Antibacterial activity against Escherichia coli assessed as reduction in bacterial cell viability by well plate method; assay type: functional
# Bacillus subtilis = experiment: Antibacterial activity against Bacillus subtilis assessed as reduction in bacterial cell viability by well plate method; assay type: functional
# DU-145 = experiment: Antiproliferative activity against human DU145 cells; assay type: functional, cell-based
# [4] = Inhibition of recombinant LFA1/ICAM1 (unknown origin) interaction incubated for 1 hr by time resolved fluorimetry; set-up: species or system Homo sapiens
# U-937 = experiment: Cell cycle arrest in human U937 cells assessed as increase in accumulation in G2 phase incubated for 6 hrs by propidium iodide staining based flow cytometry; assay type: functional; details: U-937, 6 h
# Staphylococcus aureus = experiment: Antibacterial activity against Staphylococcus aureus ATCC 6538 assessed as reduction in bacterial cell viability incubated for 24 hrs by broth microdilution assay; assay type: functional, organism-based; details: ATCC 6538, 24 h
# [5] = molecular target: T1, Amine oxidase [flavin-containing] B (Homo sapiens, UniProt P27338); experiment: Inhibition of recombinant human MAOB using kynuramine as substrate preincubated with substrate for 10 mins followed by enzyme addition and measured after 20 mins by fluorescence spectrophotometry
# T1 sequence (P27338 whole entry): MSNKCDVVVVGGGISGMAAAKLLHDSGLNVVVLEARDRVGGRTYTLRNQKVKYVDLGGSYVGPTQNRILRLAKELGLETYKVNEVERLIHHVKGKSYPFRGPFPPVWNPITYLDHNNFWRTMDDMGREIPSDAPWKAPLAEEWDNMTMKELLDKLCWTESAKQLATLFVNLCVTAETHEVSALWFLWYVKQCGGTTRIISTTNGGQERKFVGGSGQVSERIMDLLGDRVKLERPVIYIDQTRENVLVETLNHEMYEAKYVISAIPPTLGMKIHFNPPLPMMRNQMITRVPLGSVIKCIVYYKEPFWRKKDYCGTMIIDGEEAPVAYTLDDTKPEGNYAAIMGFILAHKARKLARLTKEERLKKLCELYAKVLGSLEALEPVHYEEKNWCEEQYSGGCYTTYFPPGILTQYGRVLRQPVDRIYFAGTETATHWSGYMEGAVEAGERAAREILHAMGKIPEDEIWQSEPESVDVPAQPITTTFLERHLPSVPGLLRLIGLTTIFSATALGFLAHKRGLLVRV
# [6] = molecular target: T2, Tyrosinase (Agaricus bisporus) (UniProt O42713); experiment: Inhibition of mushroom tyrosinase at 25 uM using L-tyrosine as substrate incubated for 30 mins relative to control
# T2 sequence (whole entry): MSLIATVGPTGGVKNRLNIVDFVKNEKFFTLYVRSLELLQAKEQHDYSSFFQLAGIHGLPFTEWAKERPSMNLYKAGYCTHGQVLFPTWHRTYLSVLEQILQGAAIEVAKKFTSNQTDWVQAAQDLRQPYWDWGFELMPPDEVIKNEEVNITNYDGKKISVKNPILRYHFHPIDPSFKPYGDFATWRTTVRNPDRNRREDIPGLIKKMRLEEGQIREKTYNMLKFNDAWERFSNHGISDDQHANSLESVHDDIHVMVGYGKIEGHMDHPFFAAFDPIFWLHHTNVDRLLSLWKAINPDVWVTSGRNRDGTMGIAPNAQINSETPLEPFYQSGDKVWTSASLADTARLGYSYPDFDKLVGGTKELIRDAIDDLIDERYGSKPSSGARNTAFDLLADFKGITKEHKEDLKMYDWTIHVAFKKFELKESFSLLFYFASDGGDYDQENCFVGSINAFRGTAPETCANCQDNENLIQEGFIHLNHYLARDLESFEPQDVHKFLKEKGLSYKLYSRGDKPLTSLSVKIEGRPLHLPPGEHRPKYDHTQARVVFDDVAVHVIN
# HeLa S3 = experiment: Antiproliferative activity against human HeLaS3 cells assessed as reduction in cell viability incubated for 72 hrs by cell counter method; assay type: functional, cell-based; details: HeLa S3, 72 h
smiles,measurement,setting,value
O=C(/C=C/c1ccccc1)N1CCCCC1,log(1/MIC),Escherichia coli [1],2.43
same,log(1/MIC),Candida albicans,2.43
CCCc1n[nH]c(C(N)=O)c1NC(=O)/C=C/c1ccccc1,IC50,MGC-803,3.44 µM
CCc1ccccc1Sc1ccc(/C=C/C(=O)N2CCN(C(C)=O)CC2)cc1[N+](=O)[O-],IC50,[2],0.065 µM
COc1cc(/C=C/C(=O)N2CCOCC2)cc(OC)c1OC,MIC,Escherichia coli [3],25 µM
same,MIC,Bacillus subtilis,25 µM
CCCc1n[nH]c(C(N)=O)c1NC(=O)/C=C/c1cc(OC)c(OC)c(OC)c1,IC50,MGC-803,4.24 µM
CN(C)C(=O)/C=C/c1ccccc1,log(1/MIC),Escherichia coli [1],2.43
same,log(1/MIC),Candida albicans,2.43
O=C(/C=C/c1ccccc1)Nc1ccc([N+](=O)[O-])cc1,log(1/MIC),Escherichia coli [1],2.43
same,log(1/MIC),Candida albicans,2.43
O=C(/C=C/c1ccc(O)cc1)N1Cc2ccccc2[C@@H](OCc2ccccc2)[C@@H]1CO,IC50,DU-145,2.08 µM
CC(=O)N1CCN(C(=O)/C=C/c2ccc(Sc3ccccc3C(C)C)c([N+](=O)[O-])c2)CC1 [A-286982],IC50,[4],0.035 µM
O=C(O)C1CCCN(C(=O)/C=C/c2ccc(Sc3ccc4c(c3)OCCO4)c(C(F)(F)F)c2)C1 (centres undefined),IC50,[4],0.025 µM
COc1ccc(/C=C/C(=O)NC23CC4CC(CC(C4)C2)C3)c2ccccc12,IC50,U-937,7.1 µM
COc1ccc(/C=C/C(=O)N2CCOCC2)c(OC)c1OC,MIC,Escherichia coli [3],6.12 µM
same,MIC,Bacillus subtilis,6.12 µM
COc1cc(/C=C/C(=O)NNC(=O)c2ccccc2)cc(OC)c1OC,IC50,Staphylococcus aureus,85.2 µM
O=C(/C=C/c1ccc(O)cc1)NCCc1c[nH]c2ccc(O)cc12 [N-P-COUMAROYL SEROTONIN],EC50,[5],1.2 µM
O=C(/C=C/c1ccc(O)cc1O)Nc1ccccc1,inhibition,[6],93.7%
COc1ccc(/C=C/C(=O)N2C[C@H]3C[C@@]34C2=CC(=O)c2[nH]c(C)c(Br)c24)cc1,IC50,HeLa S3,65 pM
O=C(/C=C/c1ccc(O)cc1O)NC1CCCC1,inhibition,[6],94.1%
CN1CCN(C(=O)/C=C/c2ccc(O)cc2O)CC1,inhibition,[6],94.4%
O=C(/C=C/c1ccc(O)cc1O)N1CCOCC1,inhibition,[6],95.7%
